# Measurements taken from US20250092058A1 (priority 2018, published 2025).
# Tests used:
# HCT116 = format: cell-based, human; conditions: Table 13; MTT; HCT116 colorectal cancer
# [1] = tested on: survivin, Mcl-1, XIAP, cIAP2; assay: Western blots of anti-/pro-apoptotic proteins in PANC1 and Mia2; format: cell-based, human; conditions: 16 h to 48 h, dose-dependent
# Description: Western blotting/Immunoblotting. […] Fifty μg total protein from each sample were heated at 95° C. for 5 minutes after mixing with equal volume of 2×SDS loading buffer. Samples were separated on 12-15% SDS-polyacrylamide gel electrophoresis (SDS-PAGE) gels and electrotransferred to Pure Nitrocellulose Membranes (Bio-Rad, Hercules, CA). The membrane was then blocked in 5% skim milk in TBS-T buffer (20 mM Tris/HCl pH 7.5, 0.137 M NaCl, and 0.1% Tween 20) at room temperature for 2-3 hours. Next, the membrane was incubated with different primary antibodies in TBS-T containing 5% BSA overnight at 4° C. in the range of dilutions from 1:500 to 1:2000. After washing with TBS-T, the membrane was incubated in TBS-T buffer containing 5% skim milk and corresponding secondary antibody (1:5000) for 45-60 minutes at room temperature with shaking. Protein of interest was detected using Western Lightning Plus—ECL (Perkin Elmer, Waltham, MA) and visualized by various times (3-120 seconds) of exposure. Actin was detected as the internal control to normalize total protein loading for each sample.
# PDX17624 = assay: Pancreatic cancer PDX17624 in SCID mice; format: in vivo; conditions: 5 mg/kg ip qw×4
# Description: Human pancreatic cancer patient-derived xenograft (PDX) tumor mouse model and treatment. Experiments followed the IACUC-approved mouse protocol. Briefly, human PDAC PDX tumors maintained on SCID mice were isolated, and a piece of non-necrotic tumor tissues (30-40 mg) were subcutaneously transplanted into the flank area of female SCID mice. […] In this study, we used the timesaving intraperitoneal (ip) route for drug administration. […] The formulation process was described in detail in our previous patent (PCT/US2011/058558). […] Tumor length (L) and width (W) were measured using digital vernier calipers 1-3 times per week until the end of experimental studies. The tumor volume (v) was calculated using the formula: v=0.5 (L×W^2). Then the tumor size was divided by the day 0 tumor size as percentage tumor size versus day 0. The mean tumor volume ± standard deviation (SD) at each time point was derived from 5 mice in each group. The tumor curves were made using Sigma Plot software.
# It has been recently documented that pancreatic cancer PDXs retain active paracrine/Hedgehog signaling, and desmoplasia is active in PDX tumor mouse models.
# [2] = Stability of FL118 formulated suspension; conditions: no observable change in antitumor efficacy vs freshly prepared
smiles,measurement,setting,value
"CC[C@@]1(O)C(=O)OCc2c1cc1n(c2=O)Cc2cc3cc4c(cc3nc2-1)OCO4 [FL118, 10,11-methylenedioxy-camptothecin]",IC50,HCT116,66.5 ± 11.2 nM
same,"expression of antiapoptotic proteins (XIAP, cIAP2, Mcl-1 or survivin)",[1],differentially modulates the expression of antiapoptotic proteins
same,antitumor efficacy,PDX17624,able to eliminate these PDX tumors after one cycle of treatment
same,stability of formulated suspension for oral administration,[2],more than 12 months
